Values of other authors, collected in patent publication US20090263514A1, “Cold and flu tonic” (priority 2008, published 2009).

Conditions: in humans

O=C(/C=C/C=C/c1ccc2c(c1)OCO2)N1CCCCC1 [piperine]
bioavailability of curcumin: enhance bioavailability of curcumin dramatically
